Results from patent US6866837B2, “Radiolabeled peptides for the diagnosis and treatment of breast and prostate tumors and metastases of such tumors” (Mallinckrodt Inc., priority 1998, dated 2005).
Where two headings read alike, the source gives them in different places.

What was measured:
[1] = test system: 7315b cells; conditions: read-out: agonistic activities on bombesin stimulated prolactin secretion, IC50
[2] = for 2 h after labeling with IN-111 up to 100 Mbq per jj. g; HPLC
[3] = rats
[4] = test system: bombesin receptor positive prolactinoma 7315b; conditions: female Lewis rats; visualized by scintigraphy
[5] = in vivo; conditions: rat, total radioactivity
[6] = rats; cited from earlier work
[7] = Dynamic gamma camera: clearance and excretion of radioactivity; conditions: rat, in vivo
[8] = test system: bombesin receptors; assay: Receptor autoradiography of human tumor tissue sections with the radioligand; assay type: binding
Experimental: Various tumor tissue samples, including surrounding tissue, were harvested from human patients and/or human cadavers, and frozen. The samples were cut on a cryostat, mounted on microscope slides, and then stored at −20° C. for […] improve adhesion of the tissue to the slide. The slide-mounted tissue sections were allowed to reach room temperature and preincubated in 50 mmol/1 Tris-HCl, 130 mmol/1 NaCl, 4.7 mmol/1 KCl, 5 mmol/I MgCl2, 1 mmol/l ethylene glycol-bi (b-aminoethylether)-N, N, N′, N′-tetraacetic acid, and 0.5% bovine serum albumin, pH 7.4 (preincubation solution), for 30 min. at 25° C. The slides are then incubated in a solution containing the same medium as the preincubation solution except the bovine serum albumin is omitted, and the following compounds are added: 20000 dpm/100 ml of the radioligand of Example 1, 0.025% bacitracin, 1 mmol/l dithiothreitol, 2 mg/ml chymostatin, and 4 mg/ml leupeptin, pH=6.5. The slides are incubated at room temperature with the radioligand for 150 min., as described by Mantyh et al. (Gasteroenterology, 1994, 107, 1019-30). After the incubation, the slides are rinsed with four washes of 30 sec each in ice-cold preincubation solution, pH 7.4, dipped in ice-cold water, and then quickly dried in a refrigerator under a stream of cold air. The sections are subsequently exposed to a ^3H Ultrofilm for 1 week, to detect the precise location of the radioactivity.
The films were evaluated to determine the ability to distinguish the tumor from the surrounding tissue.

[9] = Breat Cancer Metastases, 5 samples
[10] = Non Small Cell Lung Carcinoma, 34 samples
[11] = Prostate Cancer Metastases, 5 samples
[12] = Small Cell Lung Carcinoma, 10 samples
[13] = Uterus Leomyosarcoma Tumor, 3 samples
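For Tissue RA, Pancreas in this document: radiolabelled ligand targeting bombesin receptors, given by intravenous injection at varied injected mass.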
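For ratio vs. blood, Adrenal in this document: radiolabelled ligand targeting bombesin receptors, given by intravenous injection at varied injected mass.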
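For ratio vs. blood, Colon in this document: radiolabelled ligand targeting bombesin receptors, given by intravenous injection at varied injected mass.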
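For uptake in pancreas and tissues of the GI tract in this document: radiolabelled ligand targeting bombesin receptors, given by intravenous injection at varied injected mass.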

Q: Which results are given for CSCC[C@H](NC(=O)[C@H](CC(C)C)NC(=O)[C@H](Cc1c[nH]cn1)NC(=O)CNC(=O)[C@@H](NC(=O)[C@H](C)NC(=O)[C@H](Cc1c[nH]c2ccccc12)NC(=O)[C@H](CCC(N)=O)NC(=O)[C@H](CC(N)=O)NC(=O)CNC(=O)[C@H](Cc1ccc(O)cc1)NC(=O)[C@H](CCCNC(=N)N)NC(=O)[C@H](CCC(N)=O)NC(=O)[C@@H]1CCCN1C(=O)CN(CCN(CCN(CC(=O)O)CC(=O)O)CC(=O)O)CC(=O)O)C(C)C)C(N)=O [[^111In-DTPA^0, Pro^1, Tyr^4] bombesin, metal not drawn]?
A: IC50 [1]: 8 nM; radiochemically stable [2]: > 95%; uptake in pancreas and tissues of the GI tract [3]: high and specific uptake; Tissue RA, Pancreas ([3]; 48 h after injection, 0.01 μg): 1.0 % ID/g; ratio vs. blood, Adrenal ([3]; 48 h after injection, 0.01 μg): 34; ratio vs. blood, Colon ([3]; 48 h after injection, 0.01 μg): 85; ratio vs. blood, Pancreas ([3]; 48 h after injection, 0.01 μg): 1210; ratio vs. blood, Stomach ([3]; 48 h after injection, 0.01 μg): 40; ratio vs. blood, Adrenal ([3]; 48 h after injection, 0.025 μg): 30; ratio vs. blood, Colon ([3]; 48 h after injection, 0.025 μg): 64; ratio vs. blood, Pancreas ([3]; 48 h after injection, 0.025 μg): 1217; ratio vs. blood, Stomach ([3]; 48 h after injection, 0.025 μg): 64; ratio vs. blood, Adrenal ([3]; 48 h after injection, 0.1 μg): 26; ratio vs. blood, Colon ([3]; 48 h after injection, 0.1 μg): 73; ratio vs. blood, Pancreas ([3]; 48 h after injection, 0.1 μg): 856; ratio vs. blood, Stomach ([3]; 48 h after injection, 0.1 μg): 50; ratio vs. blood, Adrenal ([3]; 48 h after injection, 0.5 μg): 18; ratio vs. blood, Colon ([3]; 48 h after injection, 0.5 μg): 52; ratio vs. blood, Pancreas ([3]; 48 h after injection, 0.5 μg): 574; ratio vs. blood, Stomach ([3]; 48 h after injection, 0.5 μg): 50; clearance of radioactivity from the blood compartment (dynamic gamma camera): rapid clearance; urinary excretion (in 1 h): 35%; urinary excretion (in 20 h): 70%; uptake in bombesin receptor positive prolactinoma 7315b [4]: Specific uptake; tissue uptake at 48 h ([5]; adrenal, 0.01 ug): 0.029 %ID/g; tissue uptake at 48 h ([5]; adrenal, 0.025 ug): 0.03 %ID/g; tissue uptake at 48 h ([5]; adrenal, 0.1 ug): 0.022 %ID/g; tissue uptake at 48 h ([5]; adrenal, 0.5 ug): 0.014 %ID/g; tissue uptake at 48 h ([5]; blood, 0.01 ug): 0.0009 %ID/g; tissue uptake at 48 h ([5]; blood, 0.025 ug): 0.001 %ID/g; tissue uptake at 48 h ([5]; blood, 0.5 ug): 0.0008 %ID/g; tissue uptake at 48 h ([5]; blood, iv, 0.1 ug): 0.0009 %ID/g; tissue uptake at 48 h ([5]; bombesin receptor positive tissues): 0.025 %ID/g; tissue uptake at 48 h ([5]; colon, 0.01 ug): 0.072 %ID/g; tissue uptake at 48 h ([5]; colon, 0.025 ug): 0.063 %ID/g; tissue uptake at 48 h ([5]; colon, 0.1 ug): 0.061 %ID/g; tissue uptake at 48 h ([5]; colon, 0.5 ug): 0.036 %ID/g; tissue uptake at 48 h ([5]; pancreas, 0.025 ug): 1.2 %ID/g; tissue uptake at 48 h ([5]; pancreas, 0.1 ug): 0.72 %ID/g; tissue uptake at 48 h ([5]; pancreas, 0.5 ug): 0.43 %ID/g; tissue uptake at 48 h ([5]; stomach, 0.01 ug): 0.035 %ID/g; tissue uptake at 48 h ([5]; stomach, 0.025 ug): 0.065 %ID/g; tissue uptake at 48 h ([5]; stomach, 0.1 ug): 0.042 %ID/g; tissue uptake at 48 h ([5]; stomach, 0.5 ug): 0.036 %ID/g; uptake in the pancreas and tissues of the GI-tract [6]: high and specific uptake; total body retention [7]: 10%

Q: What does the source list for “pGlu-Gln-Arg-Tyr-Gly-Asn-Gln-Trp-Ala-Val-Gly-His-Leu-Met-NH2 [[^125I-Tyr^4] bombesin]”?
A: % Positive ([8]; Breast Cancer, 95 samples): 69%; Number Positive ([8]; Breast Cancer, 95 samples): 66; % Positive [8, 9]: 100%; Number Positive [8, 9]: 5; % Positive ([8]; Colon Cancer, 18 samples): 6%; Number Positive ([8]; Colon Cancer, 18 samples): 1; % Positive ([8]; Gastric Cancer, 27 samples): 0%; Number Positive ([8]; Gastric Cancer, 27 samples): 0; % Positive ([8]; Gastrinomas, 4 samples): 100%; Number Positive ([8]; Gastrinomas, 4 samples): 4; % Positive ([8]; Glioblastomas, 4 samples): 100%; Number Positive ([8]; Glioblastomas, 4 samples): 4; % Positive ([8]; Melanomas, 8 samples): 12%; Number Positive ([8]; Melanomas, 8 samples): 1; % Positive [8, 10]: 0%; Number Positive [8, 10]: 0; % Positive ([8]; Pancreatic Cancer, 28 samples): 0%; Number Positive ([8]; Pancreatic Cancer, 28 samples): 0; % Positive [8, 11]: 100%; Number Positive [8, 11]: 5; % Positive ([8]; Prostate Cancer, 28 samples): 100%; Number Positive ([8]; Prostate Cancer, 28 samples): 28; % Positive [8, 12]: 20%; Number Positive [8, 12]: 2; % Positive [8, 13]: 33%; Number Positive [8, 13]: 1
